Assay results taken from PubChem BioAssay (NCI).
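Briefly, cells in 96-well plates were exposed to five compound concentrations for 48 h, and endpoints were estimated by linear interpolation. The concentration for 50% growth inhibition is given as GI50. TGI: total growth inhibition.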

Experiments:
Test in all cases: NCI-60 cell line screen, 48 h
HOP-62 NSCLC = tested on: HOP-62 NSCLC
DU-145 prostate = tested on: DU-145 prostate
HCT-15 colon = tested on: HCT-15 colon
OVCAR-3 ovarian = tested on: OVCAR-3 ovarian
NCI-H23 lung = tested on: NCI-H23 lung
A549 NSCLC = tested on: A549 NSCLC
U251 CNS = tested on: U251 CNS
SK-MEL-28 melanoma = tested on: SK-MEL-28 melanoma
IGROV1 ovarian = tested on: IGROV1 ovarian
KM12 colon = tested on: KM12 colon
SN12C renal = tested on: SN12C renal
BT-549 breast = tested on: BT-549 breast
UO-31 renal = tested on: UO-31 renal
MALME-3M melanoma = tested on: MALME-3M melanoma
CCRF-CEM leukemia = tested on: CCRF-CEM leukemia
HCC-2998 colon = tested on: HCC-2998 colon
SW-620 colon = tested on: SW-620 colon
M14 melanoma = tested on: M14 melanoma
SR leukemia = tested on: SR leukemia
SF-539 CNS = tested on: SF-539 CNS
LOX IMVI melanoma = tested on: LOX IMVI melanoma
SNB-19 CNS = tested on: SNB-19 CNS
SK-MEL-2 melanoma = tested on: SK-MEL-2 melanoma
COLO 205 colon = tested on: COLO 205 colon
RXF 393 renal = tested on: RXF 393 renal
HCT-116 colon = tested on: HCT-116 colon
HT29 colon = tested on: HT29 colon
OVCAR-4 ovarian = tested on: OVCAR-4 ovarian
MDA-MB-231 breast = tested on: MDA-MB-231 breast

O=C1/C(=C/c2ccc([N+](=O)[O-])o2)Oc2ccccc21
TGI (HOP-62 NSCLC): 6.42 µM | GI50 (DU-145 prostate): 1.91 µM | TGI (DU-145 prostate): 3.73 µM | GI50 (HCT-15 colon): 0.341 µM | TGI (HCT-15 colon): 1.43 µM | GI50 (OVCAR-3 ovarian): 1.23 µM | TGI (OVCAR-3 ovarian): 2.62 µM | GI50 (NCI-H23 lung): 1.95 µM | TGI (NCI-H23 lung): 5.08 µM | GI50 (A549 NSCLC): 3.23 µM | TGI (A549 NSCLC): 12.3 µM | GI50 (U251 CNS): 1.96 µM | TGI (U251 CNS): 4.66 µM | GI50 (SK-MEL-28 melanoma): 1.65 µM | TGI (SK-MEL-28 melanoma): 3.2 µM | GI50 (IGROV1 ovarian): 1.37 µM | TGI (IGROV1 ovarian): 3.62 µM | GI50 (KM12 colon): 1.77 µM | TGI (KM12 colon): 3.48 µM | GI50 (SN12C renal): 2.17 µM | TGI (SN12C renal): 5.53 µM | GI50 (BT-549 breast): 1.76 µM | TGI (BT-549 breast): 3.74 µM | GI50 (UO-31 renal): 1.07 µM | TGI (UO-31 renal): 2.86 µM | GI50 (MALME-3M melanoma): 1.86 µM | TGI (MALME-3M melanoma): 3.78 µM | GI50 (CCRF-CEM leukemia): 0.338 µM | TGI (CCRF-CEM leukemia): 1.38 µM | GI50 (HCC-2998 colon): 1.98 µM | TGI (HCC-2998 colon): 3.94 µM | GI50 (SW-620 colon): 0.373 µM | TGI (SW-620 colon): 1.61 µM | GI50 (M14 melanoma): 1.69 µM | TGI (M14 melanoma): 3.88 µM | GI50 (SR leukemia): 0.219 µM | TGI (SR leukemia): 1.13 µM | GI50 (SF-539 CNS): 1.87 µM | TGI (SF-539 CNS): 4.14 µM | GI50 (LOX IMVI melanoma): 1.42 µM | TGI (LOX IMVI melanoma): 2.93 µM | GI50 (SNB-19 CNS): 5.06 µM | TGI (SNB-19 CNS): 18.6 µM | GI50 (SK-MEL-2 melanoma): 1.91 µM | TGI (SK-MEL-2 melanoma): 3.73 µM | GI50 (COLO 205 colon): 1.35 µM | TGI (COLO 205 colon): 2.91 µM | GI50 (RXF 393 renal): 1.61 µM | TGI (RXF 393 renal): 3.24 µM | GI50 (HCT-116 colon): 0.332 µM | TGI (HCT-116 colon): 1.36 µM | GI50 (HT29 colon): 0.613 µM | TGI (HT29 colon): 2.84 µM | GI50 (OVCAR-4 ovarian): 1.61 µM | TGI (OVCAR-4 ovarian): 3.65 µM | GI50 (MDA-MB-231 breast): 1.54 µM | TGI (MDA-MB-231 breast): 3.58 µM
